One test addresses T1, rabbit aorta (Oryctolagus cuniculus, UniProt P34976).
T1 sequence (P34976 1-359): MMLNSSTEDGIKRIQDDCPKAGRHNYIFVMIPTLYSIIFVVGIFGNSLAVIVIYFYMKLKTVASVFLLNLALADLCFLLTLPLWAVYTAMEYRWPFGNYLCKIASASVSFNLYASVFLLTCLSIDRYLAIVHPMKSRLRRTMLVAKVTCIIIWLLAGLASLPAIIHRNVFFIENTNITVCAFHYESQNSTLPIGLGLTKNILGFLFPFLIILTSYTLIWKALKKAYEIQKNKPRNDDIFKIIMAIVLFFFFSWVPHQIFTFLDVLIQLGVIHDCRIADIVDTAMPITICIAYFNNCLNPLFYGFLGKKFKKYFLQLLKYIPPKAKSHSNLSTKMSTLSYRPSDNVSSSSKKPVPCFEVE
The experiment in a line: Rabbit Aorta Test System: antagonism of angiotensin II-induced contraction of thoracic aorta rings. In kind it is cell-based, New Zealand white rabbit. As to conditions: pA2 = -log KB; AII concentration response curve 10^-10 to 10^-7 M, 30 minutes incubation, 37° C.

A further test addresses angiotensin II receptor. As to the kind of experiment: Adrenal Glomerulosa Test System: displacement of I^125-angiotensin II binding to rat adrenal membranes. The following applies: I^125-angiotensin II 0.1 nM, room temperature, 90 minutes, KI by Cheng Prusoff equation. The method, then:
The compounds of Formula I are potent effective antagonists of angiotensin II. The ability of representative compounds of Formula I to block angiotensin II receptor binding was determined using the adrenal glomerulosa assay. The ability to antagonize angiotensininduced vasoconstriction was evaluated in the rabbit aorta test system.
Binding of I^125 -angiotensin II to adrenal membranes was routinely carried out in 96-well filtration plates. Adrenal membranes were prepared from the capsular portion (glomerulosal layer attached) of rat adrenal glands by differential centrifugation. Briefly, capsules were homogenized in a solution containing sucrose, 250 mM; MgCl2, 1 mM; and tris, 5 mM at pH 7.5 and 4° C. using a polytron at setting 5 for 20 seconds. The homogenate was stirred gently for 15 minutes at 4° C. and then centrifuged 10 minutes, at 1000×g, 4° C. The supernatant was centrifuged 30 minutes, at 30,000×g, 4° C., and the resulting pellet resuspended in 50 mM tris. Membrane preparations were stored in aliquots at -70° C. until used. Binding of I^125 -angiotensin II to adrenal membranes was performed at room temperature for 90 minutes in 96-well plates containing a hydrophilic polyvinylidene fluoride membrane (0.45 μm, Millipore-GV multiscreen). Each 250 μl incubate contained the following (final concentration): tris, 50 mM; NaCl, 120 mM; MgCl2, 5 mM; dithiothrietol 1 mM; bovine serum albumin, 0.05%; I^125 -angiotensin II, 0.1 nM; and adrenal membrane protein, 8-15 μg. Antagonists were added in concentrations from 10 nM to 100 μM. Non-specific binding was measured in the presence of 0.1 μM Sar1, Ile8 angiotensin II. Binding was terminated by vacuum filtration. Receptor-ligand complex trapped on filters was washed 3 times with 300 μl ice-cold wash solution (tris, 50 mM; NaCl, 120 mM; MgCl2, 5 mM; dithiothrietol, 1 mM). Filter discs were dried, punched out and counted in a gamma counter at 52% efficiency. Specific binding represented 96% of total binding (approximately 150 fmol angiotensin II/mg protein). The molar concentration (IC50) of the inhibitor that displaced 50% of the binding of 1125 angiotensin II for each compound was calculated using a 4 parameter logistics model (NonLin, SAS Institute). Data are expressed as KI (μm) calculated using the Cheng Prusoff equation. See Cheng et al. Biochemo Pharmacol. 22: 3099 (1973).

pKi: −log10 of the molar value.

Regarding “1-[5(and 6)-[2-(2H-Tetrazol-5-yl)phenyl]-2-pentyl-1H-benzimidazol-1-yl]acetic acid [Example 61]”, the “Rabbit Aorta (pA2)” value at rabbit aorta turned out to be 5.4. Turning to “2-[1-Hexyl-5-[2-(2H-tetrazol-5-yl)phenyl]-1H-benzimidazol-2-yl]propionic Acid [Example 30]”, at rabbit aorta, the “Rabbit Aorta (pA2)” value is recorded as 6.5. Take “4-Butoxy-2-[5(and 6)-[2-(2H-tetrazol-5-yl)phenyl]-1H-benzimidazol-1-yl]-butanoic acid [Example 11]”: on rabbit aorta, the “Rabbit Aorta (pA2)” value stood at 6.7. Turning to `CCCCCCC(C(=O)O)n1ncc2cc(-c3ccccc3-c3nn[nH]n3)ccc21` (stereo not shown) [27 2H], the pKi (commonly the Ki on a negative log10 scale, so that one unit is a factor of ten) at angiotensin II receptor is 5.27. `CCCCCCC(C(=O)O)n1ccc2cc(-c3ccccc3C(=O)O)ccc21` (stereo not shown) [Example 1, 2[-5-(2-Carboxyphenyl)indol-1-yl]octanoic acid] had a pKi on angiotensin II receptor of 5.41.

At angiotensin II receptor, `CCCCCCC(C(=O)O)n1ccc2cc(-c3cccc(O)c3C(=O)O)ccc21` (stereo not shown) [Example 2, 2-[5-(2-Carboxy-3-hydroxyphenyl)indol-1-yl]octanoic acid] showed a negative-log Ki (pKi) of 5.02. With `CCCCCCC(C(=O)O)n1cnc2cc(-c3ccccc3-c3nn[nH]n3)ccc21` (stereo not shown) [Example 3, 2-[5-[2-(2H-Tetrazol-5-yl)phenyl]-1H-benzimidazol-1-yl]octanoic acid], the pKi on angiotensin II receptor is 5.25. Consider `CCCCCCC(C(=O)O)n1c(C)nc2cc(-c3ccccc3-c3nnn[nH]3)ccc21` (stereo not shown) [Example 5], for which the pKi on angiotensin II receptor was 6.44. On the same count and under the same terms, under `CCCCCCC(C(=O)O)n1c(C(F)(F)F)nc2cc(-c3ccccc3-c3nn[nH]n3)ccc21` (stereo not shown) [Example 6, 2-[5-[2-(2H-Tetrazol-5-yl)phenyl]-2-trifluoromethyl-1H-benzimidazol-1-yl]octanoic acid] stands 7.07; under `CCCCCCC(C(=O)N1CCC[C@H]1C(=O)O)n1cnc2cc(-c3ccccc3-c3nn[nH]n3)ccc21` (stereo partly drawn) [Example 9, 1-[1-Oxo-2-[5-[2-(2H-tetrazol-5-yl)phenyl]-1H-benzimidazole-1-yl]octyl]-L-proline], 7.54; under `CCCCCCC(C(=O)N1CC(O)C[C@H]1C(=O)O)n1cnc2cc(-c3ccccc3-c3nn[nH]n3)ccc21` (stereo partly drawn) [Example 13, 1-[1-oxo-2-[5-[2-(2H-tetrazol-5-yl)phenyl]-1H-benzimidazole-1-yl]octyl]-4-hydroxy-L-proline], 8.38. The same measure, in the same setting: under `CCCCCCC(c1nccn1C)n1cnc2cc(-c3ccccc3-c3nnn[nH]3)ccc21` (stereo not shown) [Example 14, 1-Methyl-2-[1-[5-2-(2H-Tetrazol-5-yl)phenyl-1H-benzimidazol-1-yl]heptyl]-1H-imidazole] stands 5.97.

As for `CCCCCC#CC(C(=O)O)n1cnc2cc(-c3ccccc3-c3nn[nH]n3)ccc21` (stereo not shown) [Example 16], on rabbit aorta, the “Rabbit Aorta (pA2)” value is on record as 7.2.

On to `CCCCCCC(CC(=O)O)n1ccc2cc(-c3ccccc3-c3nn[nH]n3)ccc21` (stereo not shown) [Example 21, 3-[5-[2-(2H-Tetrazol-5-yl)phenyl]indol-1-yl]nonanoic Acid], for which the pKi at angiotensin II receptor was 5.65.

As to `CCCCCC(C(=O)O)n1ccc2cc(-c3ccccc3-c3nn[nH]n3)ccc21` (stereo not shown) [Example 22, 2-[5-[2-(2H-Tetrazol-5-yl)phenyl]indol-1-yl]heptanoic Acid], the pKi on angiotensin II receptor is 5.76.

For `CCCCCCC(C(=O)O)n1cc(Cc2ccccc2)c2cc(-c3ccccc3-c3nn[nH]n3)ccc21` (stereo not shown) [Example 24, 2-[3-benzyl-5-[2-(2H-tetrazol-5-yl)phenyl]indol-1-yl]octanoic Acid], the pKi at angiotensin II receptor is 4.86. Consider `CCCC/C=C/C(C(=O)O)n1ccc2cc(-c3ccccc3-c3nn[nH]n3)ccc21` (stereo not drawn) [Example 25A, 2-[5-[2-(2H-Tetrazol-5-yl)phenyl]indol-1-yl]-3-trans-octenoic acid], for which the “Rabbit Aorta (pA2)” value on rabbit aorta is given as 6.5.

For the compound `CCCC/C=C\C(C(=O)O)n1ccc2cc(-c3ccccc3-c3nn[nH]n3)ccc21` (stereo not drawn) [Example 25B, 2-[5-[2-(2H-tetrazol-5-yl)phenyl]indol-1-yl]-3-cis-octenoic acid], the “Rabbit Aorta (pA2)” value on rabbit aorta amounted to 7.3.

On angiotensin II receptor, `CCCCCCC(C(=O)O)n1cc(Br)c2cc(-c3ccccc3-c3nnn[nH]3)ccc21` (stereo not shown) [Example 26, 2-[3-Bromo-5-[2-[2H-tetrazol-5-yl)phenyl]indo-1-yl]octanoic Acid] had a pKi of 5.24. Compound `CCCCC(c1cccc(C(F)(F)F)c1)n1ccc2cc(-c3ccccc3-c3nn[nH]n3)ccc21` (stereo not shown) [Example 28, 5-[2-(2H-tetrazol-5-yl)phenyl]-1-[1-(3-trifluoromethylphenyl)-1-pentyl]indole] showed a pKi on angiotensin II receptor of 4.84. For the compound `CCCCC(c1ccc(C(F)(F)F)cc1)n1ccc2cc(-c3ccccc3-c3nn[nH]n3)ccc21` (stereo not shown) [Example 29, 5-[2-(2H-tetrazol-5-yl)phenyl]-1-[1-(4-trifluoromethylphenyl)-1-pentyl]indole], at angiotensin II receptor, the pKi is 4.72. On angiotensin II receptor, `CCCCCCC(c1nnn[nH]1)n1cnc2cc(-c3ccccc3-c3nnn[nH]3)ccc21` (stereo not shown) [Example 34] gave a pKi of 7.21. Regarding `CCCCCCC(C(=O)N(C)CC(=O)O)n1cnc2cc(-c3ccccc3-c3nn[nH]n3)ccc21` (stereo not shown) [Example 37, 1-[1-Oxo-2-[5-[2-(2H-tetrazol-5-yl]phenyl]-1H-benzimidazol-1]octyl]-N-methylglycine], the pKi at angiotensin II receptor was 7.09. `CCCCCCC(C(=O)N1CC2(C[C@H]1C(=O)O)OCCO2)n1cnc2cc(-c3ccccc3-c3nn[nH]n3)ccc21` (stereo partly shown) [Example 40] gave a pKi on angiotensin II receptor of 6.60. The compound `CCCCCCC(C(=O)N[C@@H](CC(=O)O)C(=O)O)n1cnc2cc(-c3ccccc3-c3nn[nH]n3)ccc21` (stereo partly drawn) [Example 41, N-[1-Oxo-2-[5-[2-(2H-tetrazol-5-yl]phenyl]-1H-benzimidazol-1-yl]octyl]-L-aspartic Acid] had a pKi at angiotensin II receptor of 7.00. As to `CCCCCCC(C(=O)N[C@@H](CO)C(=O)O)n1cnc2cc(-c3ccccc3-c3nn[nH]n3)ccc21` (stereo partly drawn) [Example 42, N-[1-oxo-2-[5-[2-(2H-tetrazol-5-yl]phenyl]-1H-benzimidazol-1-yl]octyl]-L-serine], the pKi on angiotensin II receptor is 6.58. `CCCCCCC(C(=O)N1CCC1C(=O)O)n1cnc2cc(-c3ccccc3-c3nn[nH]n3)ccc21` (stereo not shown) [Example 43] gave a pKi at angiotensin II receptor of 7.16. As for `CCCCCCC(C(=O)N1CCC(C(=O)O)C1)n1cnc2cc(-c3ccccc3-c3nn[nH]n3)ccc21` (stereo not shown) [Example 44], the pKi on angiotensin II receptor was 6.70.
